Source: PMC10882719 (Frontiers in Neuroscience, 2024)
Read-outs that look alike come from different tables or passages of the source.

How the values were obtained:
5HT2A receptor = molecular target: T1, 5HT2A receptor (Homo sapiens, UniProt P28223); assay: GPCRmax screen, antagonist mode, 5HT2A; assay type: cell-based; conditions: HTR2A
T1 construct: β-galactosidase enzyme fragment (enzyme fragment complementation reporter); host or cells: PathHunter cell lines
Procedure: Studies were performed at Eurofins DiscoverX Corporation (Fremont, CA) using the GPCRmax assay according to the manufacturer’s protocols. […] Activity greater than 30% typically indicates agonist activity and inhibition greater than 50% indicates antagonist activity. This assay uses enzyme fragment complementation with […] as the functional reporter. When a GPCR is activated, […] is recruited and the reporter is detectable. GPCRmax offers a high-throughput screen of 168 GPCRs for agonist or antagonist activity. Briefly, PathHunter cell lines were propagated, seeded into 384-well microplates and incubated at 37°C. […] Microplates were read following signal generation with a PerkinElmer Envision™ instrument for chemiluminescent signal detection. Compound activity was analyzed using CBIS data analysis suite (ChemInnovation, CA) to determine raw values (RLU). For agonist mode assay, percentage activity was calculated using the following formula: % Activity =100% × (mean RLU of test sample - mean RLU of vehicle control) / (mean MAX control ligand - mean RLU of vehicle control). For antagonist mode assay, percentage inhibition was calculated using the following formula: % Inhibition =100% × (1 - (mean RLU of test sample - mean RLU of vehicle control) / (mean RLU of EC80 control - mean RLU of vehicle control)).

168 GPCRs [1] = molecular target: T2, 168 GPCRs (Homo sapiens, UniProt P48546); assay type: cell-based; conditions: GIPR
T2 construct: host or cells: PathHunter cell lines
T2 sequence (P48546 22-466): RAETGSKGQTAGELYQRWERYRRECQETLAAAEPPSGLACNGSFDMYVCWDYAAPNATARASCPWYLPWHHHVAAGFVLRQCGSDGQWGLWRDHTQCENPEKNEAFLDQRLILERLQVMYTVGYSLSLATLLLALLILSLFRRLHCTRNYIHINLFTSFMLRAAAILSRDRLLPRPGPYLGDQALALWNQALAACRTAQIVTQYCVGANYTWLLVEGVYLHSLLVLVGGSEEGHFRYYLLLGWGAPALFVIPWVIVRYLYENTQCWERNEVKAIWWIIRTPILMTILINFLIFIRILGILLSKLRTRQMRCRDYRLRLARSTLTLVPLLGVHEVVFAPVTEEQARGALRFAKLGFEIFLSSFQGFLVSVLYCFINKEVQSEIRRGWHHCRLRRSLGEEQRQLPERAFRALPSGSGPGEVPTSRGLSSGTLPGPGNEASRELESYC

168 GPCRs [2] = molecular target: T3, 168 GPCRs (Homo sapiens, UniProt P25025); assay type: cell-based
T3 construct: host or cells: PathHunter cell lines
T3 sequence (P25025 1-360): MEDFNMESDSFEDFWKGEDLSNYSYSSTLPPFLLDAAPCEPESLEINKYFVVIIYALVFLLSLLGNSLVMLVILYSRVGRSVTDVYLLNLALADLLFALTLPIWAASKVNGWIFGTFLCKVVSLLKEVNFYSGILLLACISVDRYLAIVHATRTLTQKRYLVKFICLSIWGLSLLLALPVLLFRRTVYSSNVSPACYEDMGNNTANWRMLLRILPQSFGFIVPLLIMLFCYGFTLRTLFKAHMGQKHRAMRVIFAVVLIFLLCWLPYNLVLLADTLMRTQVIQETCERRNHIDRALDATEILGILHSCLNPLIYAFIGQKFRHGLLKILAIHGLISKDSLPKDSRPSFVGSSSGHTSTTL

168 GPCRs [3] = molecular target: T4, 168 GPCRs (Homo sapiens, UniProt P49146); assay type: cell-based; conditions: NPY2R
T4 construct: host or cells: PathHunter cell lines
T4 sequence (P49146 1-381): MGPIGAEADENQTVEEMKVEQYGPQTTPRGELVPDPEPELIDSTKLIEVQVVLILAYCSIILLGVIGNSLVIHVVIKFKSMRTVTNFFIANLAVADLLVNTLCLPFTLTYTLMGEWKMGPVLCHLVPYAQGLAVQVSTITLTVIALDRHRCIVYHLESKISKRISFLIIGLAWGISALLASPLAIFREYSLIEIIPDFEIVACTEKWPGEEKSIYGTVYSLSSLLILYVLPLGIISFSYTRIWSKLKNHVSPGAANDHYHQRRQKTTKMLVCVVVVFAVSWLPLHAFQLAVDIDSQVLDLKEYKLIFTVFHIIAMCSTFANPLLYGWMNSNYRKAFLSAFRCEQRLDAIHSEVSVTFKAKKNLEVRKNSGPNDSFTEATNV

[4] = tested on: frontal cortex gene expression; assay: RNA-seq differential gene expression, frontal cortex; assay type: in vivo, rat; conditions: 10 mg/kg IP, 8 h; for Number of genes significantly regulated: vs vehicle
[5] = tested on: myelin basic protein (MBP); assay: Immunohistochemistry of myelin basic protein in brain; assay type: in vivo, rat; conditions: 10 mg/kg IP, 24 h, vs vehicle
Procedure: The in-life portion of the study was conducted at WuXi Apptec (Cranbury, NJ). Sectioning and staining of brains took place at Neuroscience Associates (NSA, Knoxville, TN). […] Brains were post-fixed in PFA before shipment to NSA for processing and staining. Hemisected brains were mounted, sectioned and stained using standard protocols with myelin-basic protein primary antibody (MBP SMI-99, 1:5000, Biolegend, San Diego, CA) and anti-mouse biotinylated secondary antibody (BA-2001, Vector Laboratories, Newark, CA). Slides were imaged using a Huron Digital Pathology TissueScope LE120 whole slide scanning system. 20x objective was used with a 0.4um/pixel resolution.

T1 sequence (P28223 whole entry, the tested form may be a part): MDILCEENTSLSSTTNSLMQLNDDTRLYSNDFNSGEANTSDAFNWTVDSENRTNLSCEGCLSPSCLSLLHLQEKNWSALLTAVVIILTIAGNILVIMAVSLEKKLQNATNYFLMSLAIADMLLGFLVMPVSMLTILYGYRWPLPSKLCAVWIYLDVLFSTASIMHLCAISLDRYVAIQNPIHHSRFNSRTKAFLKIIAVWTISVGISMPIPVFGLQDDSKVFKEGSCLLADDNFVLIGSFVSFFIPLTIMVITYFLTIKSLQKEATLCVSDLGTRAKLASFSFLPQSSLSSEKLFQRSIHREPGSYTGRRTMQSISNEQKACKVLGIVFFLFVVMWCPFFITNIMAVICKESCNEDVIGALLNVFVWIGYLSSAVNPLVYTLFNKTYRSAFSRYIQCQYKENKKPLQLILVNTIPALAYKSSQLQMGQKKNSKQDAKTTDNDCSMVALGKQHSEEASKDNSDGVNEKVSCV

Compound	% Antagonist Activity (5HT2A receptor; 1 uM) [%]	% Antagonist Activity (5HT2A receptor; 10 uM) [%]	% Agonist Activity (168 GPCRs [1]; 1 uM) [%]	% Antagonist Activity (168 GPCRs [1]; 1 uM) [%]	% Agonist Activity (168 GPCRs [1]; 10 uM) [%]	% Antagonist Activity (168 GPCRs [1]; 10 uM) [%]	% Agonist Activity (168 GPCRs [2]; CXCR2, 1 uM) [%]	% Antagonist Activity (168 GPCRs [2]; CXCR2, 1 uM) [%]	% Agonist Activity (168 GPCRs [2]; CXCR2, 10 uM) [%]	% Antagonist Activity (168 GPCRs [2]; CXCR2, 10 uM) [%]	% Agonist Activity (168 GPCRs [3]; Conc 1 uM) [%]	% Antagonist Activity (168 GPCRs [3]; Conc 1 uM) [%]	% Agonist Activity (168 GPCRs [3]; Conc 10 uM) [%]	% Antagonist Activity (168 GPCRs [3]; Conc 10 uM) [%]	More genes significantly regulated compared to methylone ([4]; frontal cortex)	Number of genes significantly regulated ([4]; frontal cortex) [genes]	MBP expression, basolateral nucleus of the amygdala [5]	MBP expression, central nucleus of the amygdala [5]	MBP expression, cortex (control region) [5]	Induction of BDNF, increase compared with controls ([4]; RNA-seq)
CNC(C)Cc1ccc2c(c1)OCO2 (centres unmarked) [MDMA, 3,4-Methylenedioxy methamphetamine, reference compound]	5.1	3	-2.6	-0.1	-3.3	-0.1	-0.9	12.8	2.2	14.6	-0.1	12	0.2	4.8	~ 72%	825	significant reduction	significant reduction	No change	
CNC(C)C(=O)c1ccc2c(c1)OCO2 (centres unmarked) [methylone]	-7.9	-2.7	-2.9	-1	-5.8	-5.1	-0.2	-7.6	-2.6	-1	-0.1	2.3	0.2	2		480	significant reduction	significant reduction	No change	~ 60%
